Measured values as given in patent US6472348B1, “Pyridone derivatives and herbicides” (Kumiai Chemical Industry Co., Ltd., priority 1996, dated 2002).

Key:
Assay type in all cases: in vivo
barnyardgrass (Ec) [1] = test: Test Example 1: herbicidal effects by paddy field soil treatment; details: 100 g of the active ingredient per 10 ares, 21st day after the application, index 0-5 of Table 47;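 note: grade of growth control; 5 = at least 90%; 4 = 70 to 90%; 3 = 50 to 70%; 2 = 30 to 50%; 1 = 10 to 30%; 0 = under 10%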
Method in brief: (§1)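 Flooded paddy-soil pots (3 cm water) sown after puddling/leveling; treatment 100 g a.i./10 ares; greenhouse culture; herbicidal effect rated visually on a scoring scale at 21 d post-application.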

bulrush (Sc) = test: as above; details: 100 g of the active ingredient per 10 ares, 21st day after the application, index 0-5 of Table 47;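 note: grade of growth control; 5 = at least 90%; 4 = 70 to 90%; 3 = 50 to 70%; 2 = 30 to 50%; 1 = 10 to 30%; 0 = under 10%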
Method in brief: as §1

monochoria (Mo) = test: as above; details: 100 g of the active ingredient per 10 ares, 21st day after the application, index 0-5 of Table 47;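 note: grade of growth control; 5 = at least 90%; 4 = 70 to 90%; 3 = 50 to 70%; 2 = 30 to 50%; 1 = 10 to 30%; 0 = under 10%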
Method in brief: as §1

barnyardgrass (Ec) [2] = test: Test Example 3: herbicidal effects by upland field foliage treatment; set-up: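 grade of growth control; 5 = at least 90%; 4 = 70 to 90%; 3 = 50 to 70%; 2 = 30 to 50%; 1 = 10 to 30%; 0 = under 10%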; details: 100 g of the active ingredient per 10 ares, evaluated on the 14th day after treatment
Method in brief: (§2)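 Pot culture: sand, 120 cm^2 surface; seeds sown, soil-covered, greenhouse 2 weeks. Foliage treatment applied at that stage. Herbicidal effect rated by standard scale, day 14 post-treatment.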

Diaitaria ciliaris (Di) = test: as above; set-up: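 grade of growth control; 5 = at least 90%; 4 = 70 to 90%; 3 = 50 to 70%; 2 = 30 to 50%; 1 = 10 to 30%; 0 = under 10%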; details: 100 g of the active ingredient per 10 ares, evaluated on the 14th day after treatment
Method in brief: as §2

rice flatsedge (Ci) [3] = test: as above; set-up: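 grade of growth control; 5 = at least 90%; 4 = 70 to 90%; 3 = 50 to 70%; 2 = 30 to 50%; 1 = 10 to 30%; 0 = under 10%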; details: 100 g of the active ingredient per 10 ares, evaluated on the 14th day after treatment
Method in brief: as §2

[4] = tested on: common lambsquarters (Ch); test: as above; set-up: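 grade of growth control; 5 = at least 90%; 4 = 70 to 90%; 3 = 50 to 70%; 2 = 30 to 50%; 1 = 10 to 30%; 0 = under 10%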; details: 100 g of the active ingredient per 10 ares, evaluated on the 14th day after treatment
Method in brief: as §2

pale smartweed (Po) [5] = test: as above; set-up: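 grade of growth control; 5 = at least 90%; 4 = 70 to 90%; 3 = 50 to 70%; 2 = 30 to 50%; 1 = 10 to 30%; 0 = under 10%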; details: 100 g of the active ingredient per 10 ares, evaluated on the 14th day after treatment
Method in brief: as §2

slender amaranth (Am) [6] = test: as above; set-up: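 grade of growth control; 5 = at least 90%; 4 = 70 to 90%; 3 = 50 to 70%; 2 = 30 to 50%; 1 = 10 to 30%; 0 = under 10%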; details: 100 g of the active ingredient per 10 ares, evaluated on the 14th day after treatment
Method in brief: as §2

Digitaria ciliaris (Di) = test: Test Example 2: herbicidal effects by upland field soil treatment; details: 100 g of the active ingredient per 10 ares, 21st day after the application, index 0-5 of Table 47;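 note: grade of growth control; 5 = at least 90%; 4 = 70 to 90%; 3 = 50 to 70%; 2 = 30 to 50%; 1 = 10 to 30%; 0 = under 10%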
Source text: (§3) (Test on Herbicidal Effects by Upland Field Soil Treatment)

barnyardgrass (Ec) [7] = test: as above; details: 100 g of the active ingredient per 10 ares, 21st day after the application, index 0-5 of Table 47
Source text: as §3

rice flatsedge (Ci) [8] = test: as above; details: 100 g of the active ingredient per 10 ares, 21st day after the application, index 0-5 of Table 47
Source text: as §3

[9] = tested on: common lambsquarters (Ch); test: as above; details: 100 g of the active ingredient per 10 ares, 21st day after the application, index 0-5 of Table 47
Source text: as §3

pale smartweed (Po) [10] = test: as above; details: 100 g of the active ingredient per 10 ares, 21st day after the application, index 0-5 of Table 47
Source text: as §3

slender amaranth (Am) [11] = test: as above; details: 100 g of the active ingredient per 10 ares, 21st day after the application, index 0-5 of Table 47
Source text: as §3

CCCC(Oc1cc(-c2ccc(C(F)(F)F)n(C)c2=O)c(F)cc1Cl)C(=O)OCC (racemic) [1-121]
5: Herbicidal effects Ec (barnyardgrass (Ec) [1]) | Herbicidal effects Sc (bulrush (Sc)) | Herbicidal effects Mo (monochoria (Mo)) | Herbicidal effects Ec (barnyardgrass (Ec) [2]) | Herbicidal effects Di (Diaitaria ciliaris (Di)) | Herbicidal effects Ci (rice flatsedge (Ci) [3]) | Herbicidal effects Ch [4] | Herbicidal effects Po (pale smartweed (Po) [5]) | Herbicidal effects Am (slender amaranth (Am) [6]) | Herbicidal effects Di (Digitaria ciliaris (Di)) | Herbicidal effects Ec (barnyardgrass (Ec) [7]) | Herbicidal effects Ci (rice flatsedge (Ci) [8]) | Herbicidal effects Ch [9] | Herbicidal effects Po (pale smartweed (Po) [10]) | Herbicidal effects Am (slender amaranth (Am) [11])

CCOC(=O)C(C)OC(=O)c1cc(-c2ccc(C(F)(F)F)n(C)c2=O)c(F)cc1Cl (racemic) [1-143]
5: Herbicidal effects Ec (barnyardgrass (Ec) [1]) | Herbicidal effects Sc (bulrush (Sc)) | Herbicidal effects Mo (monochoria (Mo)) | Herbicidal effects Ec (barnyardgrass (Ec) [2]) | Herbicidal effects Di (Diaitaria ciliaris (Di)) | Herbicidal effects Ci (rice flatsedge (Ci) [3]) | Herbicidal effects Ch [4] | Herbicidal effects Po (pale smartweed (Po) [5]) | Herbicidal effects Am (slender amaranth (Am) [6]) | Herbicidal effects Di (Digitaria ciliaris (Di)) | Herbicidal effects Ec (barnyardgrass (Ec) [7]) | Herbicidal effects Ci (rice flatsedge (Ci) [8]) | Herbicidal effects Ch [9] | Herbicidal effects Po (pale smartweed (Po) [10]) | Herbicidal effects Am (slender amaranth (Am) [11])

Cn1c(C(F)(F)F)ccc(-c2ccc(Cl)cc2Cl)c1=O [1-3]
5: Herbicidal effects Ec (barnyardgrass (Ec) [1]) | Herbicidal effects Sc (bulrush (Sc)) | Herbicidal effects Mo (monochoria (Mo)) | Herbicidal effects Ec (barnyardgrass (Ec) [2]) | Herbicidal effects Di (Diaitaria ciliaris (Di)) | Herbicidal effects Ci (rice flatsedge (Ci) [3]) | Herbicidal effects Ch [4] | Herbicidal effects Po (pale smartweed (Po) [5]) | Herbicidal effects Am (slender amaranth (Am) [6]) | Herbicidal effects Di (Digitaria ciliaris (Di)) | Herbicidal effects Ec (barnyardgrass (Ec) [7]) | Herbicidal effects Ci (rice flatsedge (Ci) [8]) | Herbicidal effects Ch [9] | Herbicidal effects Po (pale smartweed (Po) [10]) | Herbicidal effects Am (slender amaranth (Am) [11])

CCOC(=O)C(C)Oc1cc(-c2ccc(C(F)(F)F)n(C)c2=O)c(F)cc1Cl (stereo not drawn) [1-21]
5: Herbicidal effects Ec (barnyardgrass (Ec) [1]) | Herbicidal effects Sc (bulrush (Sc)) | Herbicidal effects Mo (monochoria (Mo)) | Herbicidal effects Ec (barnyardgrass (Ec) [2]) | Herbicidal effects Di (Diaitaria ciliaris (Di)) | Herbicidal effects Ci (rice flatsedge (Ci) [3]) | Herbicidal effects Ch [4] | Herbicidal effects Po (pale smartweed (Po) [5]) | Herbicidal effects Am (slender amaranth (Am) [6]) | Herbicidal effects Di (Digitaria ciliaris (Di)) | Herbicidal effects Ec (barnyardgrass (Ec) [7]) | Herbicidal effects Ci (rice flatsedge (Ci) [8]) | Herbicidal effects Ch [9] | Herbicidal effects Po (pale smartweed (Po) [10]) | Herbicidal effects Am (slender amaranth (Am) [11])

COCOc1cc(-c2ccc(C(F)(F)F)n(C)c2=O)c(F)cc1Cl [1-24]
5: Herbicidal effects Ec (barnyardgrass (Ec) [1]) | Herbicidal effects Sc (bulrush (Sc)) | Herbicidal effects Mo (monochoria (Mo)) | Herbicidal effects Ec (barnyardgrass (Ec) [2]) | Herbicidal effects Di (Diaitaria ciliaris (Di)) | Herbicidal effects Ci (rice flatsedge (Ci) [3]) | Herbicidal effects Ch [4] | Herbicidal effects Po (pale smartweed (Po) [5]) | Herbicidal effects Am (slender amaranth (Am) [6]) | Herbicidal effects Di (Digitaria ciliaris (Di)) | Herbicidal effects Ec (barnyardgrass (Ec) [7]) | Herbicidal effects Ci (rice flatsedge (Ci) [8]) | Herbicidal effects Ch [9] | Herbicidal effects Po (pale smartweed (Po) [10]) | Herbicidal effects Am (slender amaranth (Am) [11])

CC(C)Oc1cc(-c2ccc(C(F)(F)F)n(C)c2=O)c(Cl)cc1Cl [1-29]
5: Herbicidal effects Ec (barnyardgrass (Ec) [1]) | Herbicidal effects Sc (bulrush (Sc)) | Herbicidal effects Mo (monochoria (Mo)) | Herbicidal effects Ec (barnyardgrass (Ec) [2]) | Herbicidal effects Di (Diaitaria ciliaris (Di)) | Herbicidal effects Ci (rice flatsedge (Ci) [3]) | Herbicidal effects Ch [4] | Herbicidal effects Po (pale smartweed (Po) [5]) | Herbicidal effects Am (slender amaranth (Am) [6]) | Herbicidal effects Di (Digitaria ciliaris (Di)) | Herbicidal effects Ec (barnyardgrass (Ec) [7]) | Herbicidal effects Ci (rice flatsedge (Ci) [8]) | Herbicidal effects Ch [9] | Herbicidal effects Po (pale smartweed (Po) [10]) | Herbicidal effects Am (slender amaranth (Am) [11])

C=CCOc1cc(-c2ccc(C(F)(F)F)n(C)c2=O)c(Cl)cc1Cl [1-32]
5: Herbicidal effects Ec (barnyardgrass (Ec) [1]) | Herbicidal effects Sc (bulrush (Sc)) | Herbicidal effects Mo (monochoria (Mo)) | Herbicidal effects Ec (barnyardgrass (Ec) [2]) | Herbicidal effects Di (Diaitaria ciliaris (Di)) | Herbicidal effects Ci (rice flatsedge (Ci) [3]) | Herbicidal effects Ch [4] | Herbicidal effects Po (pale smartweed (Po) [5]) | Herbicidal effects Am (slender amaranth (Am) [6]) | Herbicidal effects Di (Digitaria ciliaris (Di)) | Herbicidal effects Ec (barnyardgrass (Ec) [7]) | Herbicidal effects Ci (rice flatsedge (Ci) [8]) | Herbicidal effects Ch [9] | Herbicidal effects Po (pale smartweed (Po) [10]) | Herbicidal effects Am (slender amaranth (Am) [11])
